Results as given in patent US20240301409A1, “Chemically Modified Small Activating RNA” (RACTIGEN THERAPEUTICS, priority 2021, published 2024).

How the values were obtained:
RNase A = biological target: T1, RNase A (Bos taurus, UniProt P61823)
T1 sequence (P61823 27-150): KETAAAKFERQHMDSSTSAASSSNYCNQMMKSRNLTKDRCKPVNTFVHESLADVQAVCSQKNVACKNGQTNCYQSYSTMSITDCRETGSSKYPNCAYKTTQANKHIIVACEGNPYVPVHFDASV

J82 cells = assay: Apoptosis detection (FITC Annexin V, flow cytometry) in J82 cells with or without PBMC co-culture; format: cell-based, human
Experimental: J82 cells were transfected with RAG1-40-31 and RAG1-40-53 at final concentrations of 0.1, 1, 10 and 25 nM, and 24 hours after transfection, fresh medium was replaced and a certain ratio of PBMC cells was added (J82 cells:PBMC cells=1:4). The cells were co-cultured for 48 hours. After co-culture, cells were collected and cell apoptosis was detected by flow cytometry. FIGS. 13A-13B show the relative proliferation proportion of J82 cells after the combined treatment with chemically modified saRNA RAG1-40-31 and Mitomycin C. […] Control and DMSO are the blank transfection control and the solvent for dilution control, respectively.
J82 cells were transfected with RAG1-40-31 at 0.1, 1, 10 and 25 nM. After 24 hours of transfection, the cells were refreshed with PBMC cell-containing fresh medium. The PBMC and J82 cells were co-cultured for 48 hours, and then the supernatant was discarded and the cells were collected. 500 μL PBS was added to each well for washing and then discarded, before the addition of 100 μL trypsin/well. 900 μL medium was added to stop digestion and the content was transferred to a 1.5 mL centrifuge tube. All the cells were collected through centrifugation (400 rcf, 5 min) and counted (1˜2×10^5 cells/100 μL Binding Buffer). 100 μL of 1× Binding Buffer (B&D Systems, 51-66121E), 5 μL FITC Annexin V (B&D Systems, 51-65874X) and 5 μL PI (B&D Systems, 51-66211E) were added before incubation in dark at room temperature for 15 minutes. After the incubation, 100 μL of 1× binding buffer was added before blending and transferring to a 96-well plate for analysis with flow cytometer (Beckman Coulter). The sample should be analyzed within 1 hour.
In order to verify this hypothesis, in this example, RAG1-40-31 duplex was selected to transfect J82 cells, and after 24 hours of transfection, the cells were refreshed with fresh medium and PBMC cells at a certain ratio (J82 cells:PBMC cells=1:4) were added, or cells free of PBMC were replaced as control. After 48 hours of co-culture, FITC Annexin V kit was used to detect the apoptosis of tumor cells on a flow cytometer. […] In PBMC-free cell culture, for RAG1-40-31 treatments at 0.1, 1, 10 and 25 nM, the percentages of cells in early apoptosis were 2.3%, 2.6%, 9.4% and 15.5%, respectively, and the percentages of cells in late apoptosis were 5.3%, 5.2%, 6.7% and 9.1%, respectively. In co-culture with PBMC cells, for RAG1-40-31 treatments at 0.1, 1, 10 and 25 nM, the percentages of cells in early apoptosis were 2.0%, 4.5%, 31.5% and 49.3%, respectively, and the percentages of cells in late apoptosis were 5.6%, 7.3%, 6.3% and 5.8%, respectively.

[1] = co-culture with PBMC cells (1:4) 48 hours, 0.1 nM
[2] = co-culture with PBMC cells (1:4) 48 hours, 1 nM
[3] = co-culture with PBMC cells (1:4) 48 hours, 10 nM
[4] = co-culture with PBMC cells (1:4) 48 hours, 25 nM

“RAG1-40-31: saRNA duplex: sense fCfCAACUCAUUCUCCAAG*U*C (SEQ ID NO 16); antisense U*A*fCfUfUGGAGAAfUGAGfUfUGG*fC*A (SEQ ID NO 12) (sense CCAACUCAUUCUCCAAGUC; antisense UACUUGGAGAAUGAGUUGGCA; 2'-F and phosphorothioate modifications; modified_base (1)..(2) (1,2)=2′-fluoro; modified_base (17)..(19) (17,18,19)=phosphorothioate (PS) backbone modification; modified_base (2)..(21) (2,3,19,20,21)=phosphorothioate (PS) backbone modification; modified_base (3)..(20) (3,4,5,12,16,17,20)=2′-fluoro)” was tested, and the “degradation of duplex at 96 hours” value (RNase A) was “little or no signs of degradation”, the “percentage of cells in early apoptosis” value (J82 cells; PBMC-free cell culture, 0.1 nM) was 2.3% and the “percentage of cells in late apoptosis” value (J82 cells; PBMC-free cell culture, 0.1 nM) was 5.3%. The “percentage of cells in early apoptosis” value (J82 cells; PBMC-free cell culture, 1 nM) was 2.6%, the “percentage of cells in late apoptosis” value (J82 cells; PBMC-free cell culture, 1 nM) was 5.2% and the “percentage of cells in early apoptosis” value (J82 cells; PBMC-free cell culture, 10 nM) was 9.4%. For the same substance, the “percentage of cells in late apoptosis” value (J82 cells; PBMC-free cell culture, 10 nM) was 6.7%, the “percentage of cells in early apoptosis” value (J82 cells; PBMC-free cell culture, 25 nM) was 15.5% and the “percentage of cells in late apoptosis” value (J82 cells; PBMC-free cell culture, 25 nM) was 9.1%. For the same substance, the “percentage of cells in early apoptosis” value (J82 cells; [1]) was 2.0%, the “percentage of cells in late apoptosis” value (J82 cells; [1]) was 5.6% and the “percentage of cells in early apoptosis” value (J82 cells; [2]) was 4.5%. The “percentage of cells in late apoptosis” value (J82 cells; [2]) was 7.3%, the “percentage of cells in early apoptosis” value (J82 cells; [3]) was 31.5% and the “percentage of cells in late apoptosis” value (J82 cells; [3]) was 6.3%. The “percentage of cells in early apoptosis” value (J82 cells; [4]) was 49.3% and the “percentage of cells in late apoptosis” value (J82 cells; [4]) was 5.8%.
